The target in experiment [1] is T1, mesotrypsin (Homo sapiens, UniProt P35030).
T1 construct: made in house; host or cells: E. coli
T1 sequence (P35030 81-304 limits assumed): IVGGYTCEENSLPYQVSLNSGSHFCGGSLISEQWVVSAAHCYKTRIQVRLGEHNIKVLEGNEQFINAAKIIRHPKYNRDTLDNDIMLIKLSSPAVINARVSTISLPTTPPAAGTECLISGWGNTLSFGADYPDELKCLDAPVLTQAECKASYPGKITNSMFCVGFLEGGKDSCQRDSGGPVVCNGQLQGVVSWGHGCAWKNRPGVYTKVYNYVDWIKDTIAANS
In words: Competitive inhibition assay with N-Cbz-Gly-Pro-Arg-pNA, mesotrypsin. The class given is biochemical. Conditions: for Ki: 0.25 nM enzyme, 37°C, pH 8.0, global fit to competitive inhibition, duplicate independent experiments. An excerpt:
(§1) Recombinant human anionic trypsinogen, human cationic trypsinogen and human mesotrypsinogen were expressed in E. coli, extracted from inclusion bodies, refolded, purified and activated with bovine enteropeptidase as described in previous work.
(§2) Active mesotrypsin was quantified by active site titration as described in [21] using 4-nitrophenyl-4-guanidinobenzoate (NPGB) from Sigma. Concentrations of colorimetric peptide reporter substrate N-Cbz-Gly-Pro-Arg-pNA (Sigma) for the activity and competitive inhibition assay were determined by end point assay. Working stocks for compounds were diluted in dimethylsulfoxide (DMSO) and stored at -20°C. Compounds were assessed for mesotrypsin inhibitory activity in reactions carried out in cuvettes at 37°C in a Varian Cary-100 spectrophotometer. Reactions consisted of 0.25 nM enzyme, 100 μM reporter substrate, 100 mM Tris-HCl pH 8.0, 1 mM CaCl2, and a compound concentration range between 50 nM to 500 μM in the assay. Reactions were followed for approximately three minutes, with the initial rates determined by the linear increase in absorbance resulting from para-nitroaniline production (ε410 = 8480 M^-1 cm^-1). Absorbance versus compound concentration was plotted on a Linear-Log scale to determine IC50.
(§3) The competitive inhibition assay reactions consisted of 0.25 nM enzyme, five reporter substrate concentrations between 10 μM-200 μM, and five inhibitory compound concentrations between 1–30 μM. Reactions were followed for approximately 3 minutes, and the initial rate data were globally fitted using Prism (GraphPad Software, San Diego CA) by non-linear regression based on Eq 1. Results are from duplicate independent experiments.
(§4) V= Kcat[E]o[S]/Km (1+[I]/Ki)+[S] (1)

Experiment [2] concerns the target T2, trypsin 2 (anionic trypsin) (Homo sapiens, UniProt P07478).
T2 construct: made in house; host or cells: E. coli
Briefly: Competitive inhibition assay, anionic trypsin. The class given is biochemical. Conditions: human trypsin 2. As to the method:
(§5) To assess compound selectivity we determined Ki for the three compounds towards related human trypsin isoforms trypsin 1 (cationic trypsin) and trypsin 2 (anionic trypsin).
as §1, §3, §4

For experiment [3], the target named is T3, trypsin 1 (cationic trypsin) (Homo sapiens, UniProt P07477).
T3 construct: made in house; host or cells: E. coli
In words: Competitive inhibition assay, cationic trypsin. The class given is biochemical. The settings on record: human trypsin 1. The protocol: as §5, §1, §3, §4

Experiment [4] concerns the target T1, mesotrypsin. Briefly: Mesotrypsin activity assay (colorimetric, N-Cbz-Gly-Pro-Arg-pNA). It is filed as biochemical. Conditions: 0.25 nM enzyme, 100 μM substrate, compound 50 nM to 500 μM, 37°C. As to the method: Compounds were tested by an in vitro activity assay utilizing the colorimetric peptide reporter substrate N-Cbz-Gly-Pro-Arg-pNA. The assay monitors the rate of para-nitroaniline production after substrate cleavage by mesotrypsin.
as §1
as §2, with “Reactions consisted of 0.25 nM enzyme, 100 μM reporter substrate, 100 mM Tris-HCl pH 8.0, 1 mM CaCl2, and a compound concentration range between 50 nM to 500 μM in the assay.” left out

The target of a further experiment is trypsin IV (mesotrypsin). The settings on record: versus trypsin IV (mesotrypsin); cited from earlier work.

T2 sequence (P07478 24-247): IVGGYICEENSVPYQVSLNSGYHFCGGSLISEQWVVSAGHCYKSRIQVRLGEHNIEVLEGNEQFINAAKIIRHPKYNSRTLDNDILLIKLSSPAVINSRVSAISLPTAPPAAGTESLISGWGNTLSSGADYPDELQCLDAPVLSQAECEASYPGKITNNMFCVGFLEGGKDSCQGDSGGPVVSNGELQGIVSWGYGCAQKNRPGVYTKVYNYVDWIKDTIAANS

For orientation: Ki means a measure of affinity in units of concentration, obtained from inhibition or displacement. For `N=C(N)c1ccc(OCCCCCOc2ccc(C(=N)N)cc2)cc1` [Pentamidine, pentamidine], the inhibition constant Ki on mesotrypsin [1] was 5.1 µM; in experiment [2] it was 1.06 ± 0.01 µM; in experiment [3], 3.12 ± 0.6 µM.

With `N=C(N)c1ccc(/N=N/Nc2ccc(C(=N)N)cc2)cc1` [Diminazene], the Ki on mesotrypsin [1] stood at 3.66 µM; in experiment [2] it was 2.29 ± 0.21 µM; in experiment [3], 3.44 ± 0.41 µM. Further, the inhibition mode entry on mesotrypsin [1] (multiple substrate and compound concentrations, Lineweaver-Burk) is reported as “competitive inhibitor”. Moreover, the “inhibitory activity towards mesotrypsin” value against mesotrypsin [4] is on record as “low micromolar range”.

As for `N=C(N)c1ccc(/C=C/c2ccc(C(=N)N)cc2O)cc1` [Hydroxystilbamidine, hydroxystilbamidine], the Ki at mesotrypsin [1] was found to be 10.6 µM; in experiment [2] it was 1.7 ± 0.05 µM; in experiment [3], 3.35 ± 0.35 µM. The “inhibitory activity towards mesotrypsin” value against mesotrypsin [4] is “low micromolar range”.

As for `N=C(N)c1ccccc1` [Benzamidine], the Ki on trypsin IV (mesotrypsin) is 22 µM.

The record behind these values is PMC5413004, “Small molecule inhibitors of mesotrypsin from a structure-based docking screen” (PLoS ONE, 2017).
